Ki data for 26 compounds are collected here from US11872226B2, “N-benzyl-2-phenoxybenzamide derivatives as prostaglandin E2 (PGE2) receptors modulators” (MEDIBIOFARMA, S.L., priority 2019, dated 2024).

One assay addresses T1, human EP2 receptor (Homo sapiens, UniProt P43116).
T1 construct: purchased Millipore HTS185M
In words: Competition binding in human EP2 receptor. The following applies: [3H]-Prostaglandin E2 competition, membranes from EP2 cell line. On the procedure: (§1) The compounds of the present invention were assayed for binding at human EP1, EP2, EP3 and EP4 receptors and were tested at several concentrations for IC50 determination.
Competition Binding in Human EP2 Receptor:
Prostaglandin EP2 receptor competition binding experiments were carried out in a polypropylene 96-well microplate plate with binding buffer (Hepes 50 mM, CaCl2 1 mM, MgCl2 5 mM, pH=7.4). In each well was incubated 10 μg of membranes from EP2 cell line (Millipore HTS185M, protein concentration=2000 μg/ml), 7.5 nM [3H]-Prostaglandin E2 (169.8 Ci/mmol, 0.1 mCi/ml, Perkin Elmer NET428250UC) and compounds studied and standard. Non-specific binding was determined in the presence of PGE2 200 μM (Cayman 14010). The reaction mixture (Vt: 250 μl/well) was incubated at 25° C. for 90 min, 200 μL was transferred to GF/C 96-well plate (Millipore, Madrid, Spain) after was filtered and washed four times with 250 μl wash buffer (Hepes 50 mM, NaCl 500 mM, pH=7.4), before measuring in a microplate beta scintillation counter (Microbeta Trilux, Perkin Elmer, Madrid, Spain). (Wilson et al., Br J Pharmacol 2006; 148:326-339).
(§2) The inhibition constants (Ki) were calculated using the Cheng Prusoff equation
(§3) [formula] where L=concentration of radioligand in the assay, and KD=affinity of the radioligand for the receptor. A scatchard plot is used to determine the KD.

A further assay has as its target T2, human EP4 receptor (Homo sapiens, UniProt P35408).
T2 construct: expressed in transfected cells; host or cells: HEK-EP4 cell line; membranes prepared in house
As to the kind of experiment: Competition binding in human EP4 receptor. The conditions noted are these: [3H]-Prostaglandin E2 competition, membranes from HEK-EP4 cell line. Here is the method: as §1
Competition Binding in Human EP4 Receptor:
Prostaglandin EP4 receptor competition binding experiments were carried out in a multiscreen GF/B 96-well plate (Millipore, Madrid, Spain) pretreated with binding buffer (Mes 25 mM, EDTA 1 mM, MgCl2 10 mM, pH=6.0). In each well was incubated 35 μg of membranes from HEK-EP4 cell line and prepared in our laboratory (Lot: A003/27-04-2011, protein concentration=2803 μg/ml), 1 nM [3H]-Prostaglandin E2 (169.8 Ci/mmol, 0.1 mCi/ml, Perkin Elmer NET428250UC) and compounds studied and standard. Non-specific binding was determined in the presence of PGE2 10 μM (Cayman 14010). The reaction mixture (Vt: 250 μl/well) was incubated at 25° C. for 120 min, 200 μL was transferred to GF/B 96-well plate (Millipore, Madrid, Spain) after was filtered and washed six times with 250 μl wash buffer (Mes 25 mM, BSA 0.01%, pH=6.0), before measuring in a microplate beta scintillation counter (Microbeta Trilux, Perkin Elmer, Madrid, Spain). (Abramovitz et al., Biochim Biophys Acta 2000; 1483:285-293).
as §2, §3

T1 sequence (P43116 whole entry): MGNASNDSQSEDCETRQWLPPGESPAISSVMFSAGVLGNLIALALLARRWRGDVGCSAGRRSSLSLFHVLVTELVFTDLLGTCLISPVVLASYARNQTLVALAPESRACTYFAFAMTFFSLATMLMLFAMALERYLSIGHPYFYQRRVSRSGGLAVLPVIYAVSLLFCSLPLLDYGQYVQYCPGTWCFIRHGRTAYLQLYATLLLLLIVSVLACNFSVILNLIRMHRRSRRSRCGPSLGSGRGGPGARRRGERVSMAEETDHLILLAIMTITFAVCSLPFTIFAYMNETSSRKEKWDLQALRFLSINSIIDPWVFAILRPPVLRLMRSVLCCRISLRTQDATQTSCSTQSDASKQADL
T2 sequence (P35408 whole entry): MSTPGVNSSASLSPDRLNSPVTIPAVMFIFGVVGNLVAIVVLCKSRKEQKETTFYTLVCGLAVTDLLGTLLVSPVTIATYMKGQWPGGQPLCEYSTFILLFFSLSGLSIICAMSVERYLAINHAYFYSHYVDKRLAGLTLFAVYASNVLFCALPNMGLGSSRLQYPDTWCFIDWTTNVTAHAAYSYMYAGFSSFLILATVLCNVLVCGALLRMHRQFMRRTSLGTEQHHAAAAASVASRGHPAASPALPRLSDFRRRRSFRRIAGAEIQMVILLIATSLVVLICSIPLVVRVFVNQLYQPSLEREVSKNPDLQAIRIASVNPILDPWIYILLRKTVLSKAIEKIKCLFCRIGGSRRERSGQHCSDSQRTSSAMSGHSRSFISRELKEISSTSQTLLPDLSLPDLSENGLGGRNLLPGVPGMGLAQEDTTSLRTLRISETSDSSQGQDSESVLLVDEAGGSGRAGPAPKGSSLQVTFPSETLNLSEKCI

For orientation: Ki means a measure of affinity in units of concentration, obtained from inhibition or displacement. With `O=C(O)c1ccc(CNC(=O)c2cc(-c3ccc(C(F)(F)F)cc3)ccc2Oc2ccc(F)cc2)cc1` [Example 14, 4-((4-(4-fluorophenoxy)-4′-(trifluoromethyl)-[1,1′-biphenyl]-3-carboxamido)methyl)benzoic acid], the Ki at human EP2 receptor was in the range of 0.1 to 1 µM; at human EP4 receptor, 1 to 10 µM.
On the same counts, the results for `O=C(O)c1ccc(CNC(=O)c2cc(-c3cccc(C(F)(F)F)c3)ccc2Oc2ccc(F)cc2)cc1` [Example 15, 4-((4-(4-fluorophenoxy)-3′-(trifluoromethyl)-[1,1′-biphenyl]-3-carboxamido)methyl)benzoic acid] are less than 0.1 µM and less than 0.1 µM.
With `O=C(O)c1ccc(CNC(=O)c2cc(-c3cccc(Cl)c3)ccc2Oc2ccc(F)cc2)cc1` [Example 20, 4-((3′-chloro-4-(4-fluorophenoxy)-[1,1′-biphenyl]-3-carboxamido)methyl) benzoic acid], the Ki is 1 to 10 µM on human EP2 receptor and less than 0.1 µM on human EP4 receptor.
On the same counts, the results for `O=C(O)c1ccc(CNC(=O)c2cc(-c3ccccc3F)ccc2Oc2ccc(F)cc2)cc1` [Example 6, 4-((2′-fluoro-4-(4-fluorophenoxy)-[1,1′-biphenyl]-3-carboxamido)methyl) benzoic acid] are 1 to 10 µM and less than 0.1 µM.
Taken in the same sequence, the figures for `O=C(O)c1ccc(CNC(=O)c2cc(-c3ccc(F)cc3)ccc2Oc2ccc(F)cc2)cc1` [Example 4, 4-((4′-fluoro-4-(4-fluorophenoxy)-[1,1′-biphenyl]-3-carboxamido)methyl) benzoic acid] were less than 0.1 µM and less than 0.1 µM.
Taken in the same sequence, the figures for `O=C(O)c1ccc(CNC(=O)c2cc(-c3ccncc3Cl)ccc2Oc2ccc(F)cc2)cc1` [Example 11, 4-((2-(4-fluorophenoxy)-5-(3-chloropyridin-4-yl)benzamido)methyl)benzoic acid] were not below 10 µM and 0.1 to 1 µM.
Take `O=C(O)c1ccc(CNC(=O)c2cc(-c3cccc(F)c3)ccc2Oc2ccc(F)cc2)cc1` [Example 5, 4-((3′-fluoro-4-(4-fluorophenoxy)-[1,1′-biphenyl]-3-carboxamido)methyl) benzoic acid]: the Ki on human EP2 receptor and on human EP4 receptor was less than 0.1 µM throughout.
As to `O=C(O)c1ccc(CNC(=O)c2cc(-c3cccc(-c4ccncc4)c3)ccc2Oc2ccc(F)cc2)cc1` [Example 26, 4-((4-(4-fluorophenoxy)-3′-(pyridin-4-yl)-[1,1′-biphenyl]-3-ylcarboxamido)methyl)benzoic acid], the Ki was not below 10 µM at human EP2 receptor and less than 0.1 µM on human EP4 receptor.
On the same counts, the results for `N#Cc1ccc(-c2ccc(Oc3ccc(F)cc3)c(C(=O)NCc3ccc(C(=O)O)cc3)c2)cc1` [Example 7, 4-((4′-cyano-4-(4-fluorophenoxy)-[1,1′-biphenyl]-3-carboxamido)methyl) benzoic acid] are 1 to 10 µM and less than 0.1 µM.
For the compound `O=C(O)c1ccc(CNC(=O)c2cc(-c3cc(F)cc(C(F)(F)F)c3)ccc2Oc2ccc(F)cc2)cc1` [Example 21, 4-((3′-fluoro-4-(4-fluorophenoxy)-5′-(trifluoromethyl)-[1,1′-biphenyl]-3-carboxamido)methyl)benzoic acid], the Ki on human EP2 receptor and on human EP4 receptor was less than 0.1 µM throughout.
On to `N#Cc1cc(Cl)cc(-c2ccc(Oc3ccc(F)cc3)c(C(=O)NCc3ccc(C(=O)O)cc3)c2)c1` [Example 32, 4-((3′-chloro-5′-cyano-4-(4-fluorophenoxy)-[1,1′-biphenyl]-3-carboxamido)methyl)benzoic acid], for which the Ki on human EP2 receptor was 1 to 10 µM; on human EP4 receptor, less than 0.1 µM.
For `O=C(O)c1ccc(CNC(=O)c2cc(-c3ccccc3)ccc2Oc2ccc(F)cc2)cc1` [Example 2, 4-((4-(4-fluorophenoxy)-[1,1′-biphenyl]-3-carboxamido)methyl)benzoic acid], the Ki was not below 10 µM on human EP2 receptor and less than 0.1 µM at human EP4 receptor.
For `O=C(O)c1ccc(CNC(=O)c2cc(-c3cncnc3)ccc2Oc2ccc(F)cc2)cc1` [Example 12, 4-((2-(4-fluorophenoxy)-5-(pyrimidin-5-yl)benzamido)methyl)benzoic acid], the Ki at human EP2 receptor is not below 10 µM; on human EP4 receptor, 0.1 to 1 µM.
Consider `C[C@@H](NC(=O)c1cc(-c2cccc(C(F)(F)F)c2)ccc1Oc1ccc(F)cc1)c1ccc(C(=O)O)cc1` [Example 29, (R)-4-(1-(4-(4-fluorophenoxy)-3′-(trifluoromethyl)-[1,1′-biphenyl]-3-carboxamido)ethyl)benzoic acid], for which the Ki at human EP2 receptor was 1 to 10 µM; on human EP4 receptor it was less than 0.1 µM.
In the case of `N#Cc1cc(F)cc(-c2ccc(Oc3ccc(F)cc3)c(C(=O)NCc3ccc(C(=O)O)cc3)c2)c1` [Example 31, 4-((3′-fluoro-5′-cyano-4-(4-fluorophenoxy)-[1,1′-biphenyl]-3-carboxamido)methyl)benzoic acid], the Ki is 1 to 10 µM at human EP2 receptor and less than 0.1 µM on human EP4 receptor.
In the case of `O=C(O)c1ccc(C2(NC(=O)c3cc(-c4cccc(C(F)(F)F)c4)ccc3Oc3ccc(F)cc3)CC2)cc1` [Example 30, 4-(1-(4-(4-fluorophenoxy)-3′-(trifluoromethyl)-[1,1′-biphenyl]-3-carboxamido)cyclopropyl)benzoic acid], the Ki at human EP2 receptor is 1 to 10 µM; at human EP4 receptor, less than 0.1 µM.
Consider `O=C(O)c1ccc(CNC(=O)c2cc(-c3cccnc3)ccc2Oc2ccc(F)cc2)cc1` [Example 10, 4-((2-(4-fluorophenoxy)-5-(pyridin-3-yl)benzamido)methyl)benzoic acid], for which the figures for the Ki at human EP2 receptor and at human EP4 receptor were 1 to 10 µM and less than 0.1 µM, respectively.
On to `O=C(O)c1ccc(CNC(=O)c2cc(-c3ccc(Cl)cc3)ccc2Oc2ccc(F)cc2)cc1` [Example 3, 4-((4′-chloro-4-(4-fluorophenoxy)-[1,1′-biphenyl]-3-carboxamido)methyl) benzoic acid], for which the figures for the Ki at human EP2 receptor and at human EP4 receptor were not below 10 µM and less than 0.1 µM, respectively.
On the same counts, the results for `O=C(O)c1ccc(CNC(=O)c2cc(-c3ccncc3)ccc2Oc2ccc(F)cc2)cc1` [Example 1, 4-((2-(4-fluorophenoxy)-5-(pyridin-4-yl)benzamido)methyl)benzoic acid] are not below 10 µM and less than 0.1 µM.
On the same counts, the results for `O=C(O)c1ccc(CNC(=O)c2cc(-c3cccc(C(F)(F)F)c3)ccc2Oc2ccc(F)cc2)c(F)c1` [Example 28, 3-fluoro-4-((4-(4-fluorophenoxy)-3′-(trifluoromethyl)-[1,1′-biphenyl]-3-ylcarboxamido)methyl)benzoic acid] are 1 to 10 µM and less than 0.1 µM.
On the same counts, the results for `NC(=O)c1ccc(-c2ccc(Oc3ccc(F)cc3)c(C(=O)NCc3ccc(C(=O)O)cc3)c2)o1` [Example 27, 4-((5-(5-carbamoylfuran-2-yl)-2-(4-fluorophenoxy)benzamido)methyl) benzoic acid] are 1 to 10 µM and 1 to 10 µM.
`O=C(O)c1ccc(CNC(=O)c2cc(-c3cccs3)ccc2Oc2ccc(F)cc2)cc1` [Example 18, 4-((2-(4-fluorophenoxy)-5-(thiophen-2-yl)benzamido)methyl)benzoic acid]: the values for the Ki at human EP2 receptor and at human EP4 receptor were 1 to 10 µM and less than 0.1 µM, respectively.
Taken in the same sequence, the figures for `O=C(O)c1ccc(CNC(=O)c2cc(-c3ccncc3F)ccc2Oc2ccc(F)cc2)cc1` [Example 9, 4-((2-(4-fluorophenoxy)-5-(3-fluoropyridin-4-yl)benzamido)methyl)benzoic acid] were 1 to 10 µM and less than 0.1 µM.
Take `O=C(O)c1ccc(CNC(=O)c2cc(-c3cc(F)cc(F)c3)ccc2Oc2ccc(F)cc2)cc1` [Example 19, 4-((3′,5′-difluoro-4-(4-fluorophenoxy)-[1,1′-biphenyl]-3-carboxamido)methyl)benzoic acid]: the Ki on human EP2 receptor and at human EP4 receptor was less than 0.1 µM in each case.
For the compound `N#Cc1cccc(-c2ccc(Oc3ccc(F)cc3)c(C(=O)NCc3ccc(C(=O)O)cc3)c2)c1` [Example 8, 4-((3′-cyano-4-(4-fluorophenoxy)-[1,1′-biphenyl]-3-carboxamido)methyl) benzoic acid], the Ki on human EP2 receptor and at human EP4 receptor was less than 0.1 µM throughout.
With `O=C(O)c1ccc(CNC(=O)c2cc(-c3ccc(F)c(F)c3)ccc2Oc2ccc(F)cc2)cc1` [Example 13, 4-((3′,4′-difluoro-4-(4-fluorophenoxy)-[1,1′-biphenyl]-3-carboxamido)methyl)benzoic acid], the Ki on human EP2 receptor is less than 0.1 µM; at human EP4 receptor, 0.1 to 1 µM.
